{"source": "patent US10392368B2", "about": "“Pyrazolo and triazolo bicyclic compounds as JAK kinase inhibitors” (THERAVANCE BIOPHARMA R&D IP, LLC, priority 2017, dated 2019)", "key": {"[1]": {"biological_target": "T1, JAK1 (Homo sapiens, UniProt P23458)", "T1 construct": "GST; purchased Life Technologies", "T1 sequence (P23458 whole entry)": "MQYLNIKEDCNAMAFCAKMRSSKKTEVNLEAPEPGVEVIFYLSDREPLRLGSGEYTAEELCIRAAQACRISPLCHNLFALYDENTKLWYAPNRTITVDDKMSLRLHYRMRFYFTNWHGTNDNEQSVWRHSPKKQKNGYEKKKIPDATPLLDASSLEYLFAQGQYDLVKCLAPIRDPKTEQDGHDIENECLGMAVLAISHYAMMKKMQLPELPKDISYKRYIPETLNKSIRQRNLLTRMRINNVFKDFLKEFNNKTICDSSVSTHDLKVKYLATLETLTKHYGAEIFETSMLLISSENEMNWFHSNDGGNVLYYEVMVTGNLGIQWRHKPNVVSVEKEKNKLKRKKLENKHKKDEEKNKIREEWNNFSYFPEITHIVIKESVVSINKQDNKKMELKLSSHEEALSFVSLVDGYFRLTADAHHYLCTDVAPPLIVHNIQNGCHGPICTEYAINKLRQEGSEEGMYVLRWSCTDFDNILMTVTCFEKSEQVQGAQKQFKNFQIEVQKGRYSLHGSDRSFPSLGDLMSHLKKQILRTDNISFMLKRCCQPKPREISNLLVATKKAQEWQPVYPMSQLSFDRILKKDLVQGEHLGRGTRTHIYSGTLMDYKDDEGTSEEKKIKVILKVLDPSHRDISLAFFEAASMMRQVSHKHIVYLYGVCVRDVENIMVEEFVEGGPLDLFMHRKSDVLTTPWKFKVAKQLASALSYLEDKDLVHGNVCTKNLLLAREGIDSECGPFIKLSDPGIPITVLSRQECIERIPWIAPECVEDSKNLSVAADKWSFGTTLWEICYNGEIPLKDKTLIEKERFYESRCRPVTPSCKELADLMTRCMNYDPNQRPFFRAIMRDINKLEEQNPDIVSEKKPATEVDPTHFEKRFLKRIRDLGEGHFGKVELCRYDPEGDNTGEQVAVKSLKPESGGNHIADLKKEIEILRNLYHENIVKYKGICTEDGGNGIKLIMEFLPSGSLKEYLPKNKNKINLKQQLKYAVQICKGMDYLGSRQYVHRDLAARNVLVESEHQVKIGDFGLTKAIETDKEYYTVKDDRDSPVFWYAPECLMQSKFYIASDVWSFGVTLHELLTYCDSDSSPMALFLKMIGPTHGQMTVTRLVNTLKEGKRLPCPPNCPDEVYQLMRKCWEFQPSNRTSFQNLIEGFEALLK", "test": "Biochemical JAK1 kinase assay (LanthaScreen)", "summary_of_the_method": "(§1)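 GST-tagged JAK enzyme and GFP-STAT1 peptide preincubated with compound 1 h, then ATP added; 1 h kinase reaction at ambient temperature, pH 7.5 HEPES/MgCl2 buffer, 1% DMSO. Tb-anti-pSTAT1 (pTyr701) TR-FRET, 520/495 nm ratio; IC50 from 4-parameter fit, converted to pKi via Cheng-Prusoff.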"}, "[2]": {"test_system": "IL-2 stimulated pSTAT5 in Tall-1 T cells", "test": "Cellular JAK3 potency assay: inhibition of IL-2 stimulated pSTAT5 in Tall-1 T cells", "format": "cell-based, human", "details": "for Tall-1 (pIC50): IL-2 stimulated pSTAT5, Tall-1 T cells", "summary_of_the_method": "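In human Tall-1 T cells, IL-2 (300 ng/ml final, 30 min) drives STAT5 phosphorylation after a 1 h compound pretreatment. Lysates are assayed for pSTAT5 by AlphaLisa, and IC50 derived from signal versus concentration is expressed as pIC50.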"}, "[3]": {"biological_target": "T2, JAK3 (Homo sapiens, UniProt P52333)", "T2 sequence (P52333 1-1124)": "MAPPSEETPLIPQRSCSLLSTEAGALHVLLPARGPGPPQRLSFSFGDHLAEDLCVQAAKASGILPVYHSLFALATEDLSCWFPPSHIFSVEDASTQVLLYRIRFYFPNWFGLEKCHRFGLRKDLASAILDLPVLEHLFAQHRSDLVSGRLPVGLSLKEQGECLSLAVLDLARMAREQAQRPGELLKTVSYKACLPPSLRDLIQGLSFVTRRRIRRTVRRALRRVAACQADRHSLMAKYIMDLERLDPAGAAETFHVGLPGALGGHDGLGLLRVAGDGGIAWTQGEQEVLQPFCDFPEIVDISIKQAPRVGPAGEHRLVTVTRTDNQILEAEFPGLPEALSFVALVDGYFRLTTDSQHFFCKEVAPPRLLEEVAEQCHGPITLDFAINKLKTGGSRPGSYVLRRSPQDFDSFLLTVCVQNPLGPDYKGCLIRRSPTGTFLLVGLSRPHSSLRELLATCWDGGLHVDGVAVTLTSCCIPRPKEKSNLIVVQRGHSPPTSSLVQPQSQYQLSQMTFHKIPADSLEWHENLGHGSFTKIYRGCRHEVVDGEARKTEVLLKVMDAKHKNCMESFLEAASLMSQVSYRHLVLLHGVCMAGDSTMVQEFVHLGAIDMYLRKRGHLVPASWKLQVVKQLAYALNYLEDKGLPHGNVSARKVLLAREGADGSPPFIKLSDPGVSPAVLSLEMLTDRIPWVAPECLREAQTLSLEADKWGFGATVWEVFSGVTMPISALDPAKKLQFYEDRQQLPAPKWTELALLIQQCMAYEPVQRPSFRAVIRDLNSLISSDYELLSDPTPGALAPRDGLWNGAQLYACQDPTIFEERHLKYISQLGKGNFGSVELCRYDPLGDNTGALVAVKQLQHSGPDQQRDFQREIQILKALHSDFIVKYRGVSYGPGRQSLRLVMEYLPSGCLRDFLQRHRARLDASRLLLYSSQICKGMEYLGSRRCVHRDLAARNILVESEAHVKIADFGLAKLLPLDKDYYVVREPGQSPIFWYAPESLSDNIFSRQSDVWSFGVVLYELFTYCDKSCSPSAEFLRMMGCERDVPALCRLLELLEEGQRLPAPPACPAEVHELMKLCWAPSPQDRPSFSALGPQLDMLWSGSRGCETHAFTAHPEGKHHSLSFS", "test": "Biochemical JAK3 kinase assay (LanthaScreen)", "parameters": "GST; purchased Life Technologies", "summary_of_the_method": "as §1"}, "[4]": {"details": "selectivity JAK3 over JAK1, difference of pKi"}}}
{"smiles": "C=CC(=O)N1CCO[C@@H](C(=O)Nc2cc(-c3ccc(O)c(F)c3)cc3[nH]ncc23)C1", "note": "[Compound 13-3]", "values": [{"measurement": "JAK 1 (pKi)", "setting": "[1]", "value": "E (a pKi value of 7 or below (Ki of 100 nM or above))"}, {"measurement": "Tall-1 (pIC50)", "setting": "[2]", "value": "A (a pIC50 value≥7.5 (IC50≤32 nM))"}, {"measurement": "JAK 3 (pKi)", "setting": "[3]", "value": "A (a pKi value≥10 (Ki≤0.1 nM))"}, {"measurement": "JAK3 (pKi)-JAK1 (pKi)", "setting": "[3]; [4]", "value": "A (a value of 3 or above)"}]}
{"smiles": "C=CC(=O)N1CC2(CCC2Oc2nc(-c3ccc(O)c(Cl)c3)nc3[nH]ncc23)C1", "note": "(stereo not drawn) [Compound 13-17]", "values": [{"measurement": "JAK 1 (pKi)", "setting": "[1]", "value": "E (a pKi value of 7 or below (Ki of 100 nM or above))"}, {"measurement": "Tall-1 (pIC50)", "setting": "[2]", "value": "B (a pIC50 value between 6.7 (included) and 7.5 (IC50 between 200 nM and 32 nM))"}, {"measurement": "JAK 3 (pKi)", "setting": "[3]", "value": "A (a pKi value≥10 (Ki≤0.1 nM))"}, {"measurement": "JAK3 (pKi)-JAK1 (pKi)", "setting": "[3]; [4]", "value": "A (a value of 3 or above)"}]}
{"smiles": "C=CC(=O)N1CC2(CCC2Oc2nc(-c3ccc(O)c(F)c3)nc3[nH]ncc23)C1", "note": "(stereo not drawn) [Compound 13-18]", "values": [{"measurement": "JAK 1 (pKi)", "setting": "[1]", "value": "E (a pKi value of 7 or below (Ki of 100 nM or above))"}, {"measurement": "Tall-1 (pIC50)", "setting": "[2]", "value": "B (a pIC50 value between 6.7 (included) and 7.5 (IC50 between 200 nM and 32 nM))"}, {"measurement": "JAK 3 (pKi)", "setting": "[3]", "value": "B (a pKi value between 9 and 10 (Ki between 1 nM and 0.1 nM))"}, {"measurement": "JAK3 (pKi)-JAK1 (pKi)", "setting": "[3]; [4]", "value": "A (a value of 3 or above)"}]}
{"smiles": "CN(C)C/C=C/C(=O)N1CCC(COc2cc(-c3ccc(O)c(Cl)c3)cc3[nH]ncc23)CC1", "note": "[Compound 14-3]", "values": [{"measurement": "JAK 1 (pKi)", "setting": "[1]", "value": "E (a pKi value of 7 or below (Ki of 100 nM or above))"}, {"measurement": "Tall-1 (pIC50)", "setting": "[2]", "value": "B (a pIC50 value between 6.7 (included) and 7.5 (IC50 between 200 nM and 32 nM))"}, {"measurement": "JAK 3 (pKi)", "setting": "[3]", "value": "B (a pKi value between 9 and 10 (Ki between 1 nM and 0.1 nM))"}, {"measurement": "JAK3 (pKi)-JAK1 (pKi)", "setting": "[3]; [4]", "value": "B (a value of 2.3 to 3)"}]}
{"smiles": "CN(C)C/C=C/C(=O)N1CCC(COc2cc(-c3ccc(O)c(F)c3)cc3[nH]ncc23)CC1", "note": "[Compound 14-4]", "values": [{"measurement": "JAK 1 (pKi)", "setting": "[1]", "value": "D (a pKi value between 7 and 8 (Ki between 100 nM and 10 nM))"}, {"measurement": "Tall-1 (pIC50)", "setting": "[2]", "value": "B (a pIC50 value between 6.7 (included) and 7.5 (IC50 between 200 nM and 32 nM))"}, {"measurement": "JAK 3 (pKi)", "setting": "[3]", "value": "B (a pKi value between 9 and 10 (Ki between 1 nM and 0.1 nM))"}, {"measurement": "JAK3 (pKi)-JAK1 (pKi)", "setting": "[3]; [4]", "value": "B (a value of 2.3 to 3)"}]}
{"smiles": "C=CC(=O)N1CCC(COc2cc(-c3ccc(O)c(F)c3)cc3[nH]ncc23)CC1", "note": "[Compound 14-5]", "values": [{"measurement": "JAK 1 (pKi)", "setting": "[1]", "value": "D (a pKi value between 7 and 8 (Ki between 100 nM and 10 nM))"}, {"measurement": "Tall-1 (pIC50)", "setting": "[2]", "value": "A (a pIC50 value≥7.5 (IC50≤32 nM))"}, {"measurement": "JAK 3 (pKi)", "setting": "[3]", "value": "B (a pKi value between 9 and 10 (Ki between 1 nM and 0.1 nM))"}, {"measurement": "JAK3 (pKi)-JAK1 (pKi)", "setting": "[3]; [4]", "value": "B (a value of 2.3 to 3)"}]}
{"smiles": "C=CC(=O)N1CCC(COc2nc(-c3ccc(O)cc3)cc3[nH]ncc23)CC1", "note": "[Compound 14-6]", "values": [{"measurement": "JAK 1 (pKi)", "setting": "[1]", "value": "D (a pKi value between 7 and 8 (Ki between 100 nM and 10 nM))"}, {"measurement": "Tall-1 (pIC50)", "setting": "[2]", "value": "A (a pIC50 value≥7.5 (IC50≤32 nM))"}, {"measurement": "JAK 3 (pKi)", "setting": "[3]", "value": "A (a pKi value≥10 (Ki≤0.1 nM))"}, {"measurement": "JAK3 (pKi)-JAK1 (pKi)", "setting": "[3]; [4]", "value": "B (a value of 2.3 to 3)"}]}
{"smiles": "C=CC(=O)N1CCC(COc2nc(-c3ccc(O)c(Cl)c3)cc3[nH]ncc23)CC1", "note": "[Compound 14-7]", "values": [{"measurement": "JAK 1 (pKi)", "setting": "[1]", "value": "D (a pKi value between 7 and 8 (Ki between 100 nM and 10 nM))"}, {"measurement": "Tall-1 (pIC50)", "setting": "[2]", "value": "A (a pIC50 value≥7.5 (IC50≤32 nM))"}, {"measurement": "JAK 3 (pKi)", "setting": "[3]", "value": "A (a pKi value≥10 (Ki≤0.1 nM))"}, {"measurement": "JAK3 (pKi)-JAK1 (pKi)", "setting": "[3]; [4]", "value": "B (a value of 2.3 to 3)"}]}
{"smiles": "C=CC(=O)N1CCC(COc2nc(-c3ccc(O)c(F)c3)cc3[nH]ncc23)CC1", "note": "[Compound 14-8]", "values": [{"measurement": "JAK 1 (pKi)", "setting": "[1]", "value": "D (a pKi value between 7 and 8 (Ki between 100 nM and 10 nM))"}, {"measurement": "Tall-1 (pIC50)", "setting": "[2]", "value": "A (a pIC50 value≥7.5 (IC50≤32 nM))"}, {"measurement": "JAK 3 (pKi)", "setting": "[3]", "value": "A (a pKi value≥10 (Ki≤0.1 nM))"}, {"measurement": "JAK3 (pKi)-JAK1 (pKi)", "setting": "[3]; [4]", "value": "B (a value of 2.3 to 3)"}]}
{"smiles": "CN(C)C/C=C/C(=O)N1CCC(COc2nc(-c3ccc(O)c(Cl)c3)cc3[nH]ncc23)CC1", "note": "[Compound 14-10]", "values": [{"measurement": "JAK 1 (pKi)", "setting": "[1]", "value": "D (a pKi value between 7 and 8 (Ki between 100 nM and 10 nM))"}, {"measurement": "Tall-1 (pIC50)", "setting": "[2]", "value": "C (a pIC50 value between 6 and 6.7 (IC50 between 1 μM and 200 nM))"}, {"measurement": "JAK 3 (pKi)", "setting": "[3]", "value": "B (a pKi value between 9 and 10 (Ki between 1 nM and 0.1 nM))"}, {"measurement": "JAK3 (pKi)-JAK1 (pKi)", "setting": "[3]; [4]", "value": "C (a value of 1.8 to 2.3)"}]}
{"smiles": "CN(C)C/C=C/C(=O)N1CCC(COc2nc(-c3ccc(O)c(F)c3)cc3[nH]ncc23)CC1", "note": "[Compound 14-11]", "values": [{"measurement": "JAK 1 (pKi)", "setting": "[1]", "value": "D (a pKi value between 7 and 8 (Ki between 100 nM and 10 nM))"}, {"measurement": "Tall-1 (pIC50)", "setting": "[2]", "value": "C (a pIC50 value between 6 and 6.7 (IC50 between 1 μM and 200 nM))"}, {"measurement": "JAK 3 (pKi)", "setting": "[3]", "value": "B (a pKi value between 9 and 10 (Ki between 1 nM and 0.1 nM))"}, {"measurement": "JAK3 (pKi)-JAK1 (pKi)", "setting": "[3]; [4]", "value": "B (a value of 2.3 to 3)"}]}
{"smiles": "CN1CCC[C@@H]1/C=C/C(=O)N1CC[C@H](Oc2cc(-c3ccc(O)cc3)cc3[nH]ncc23)C1", "note": "[Compound 15, (E)-1-((S)-3-((6-(4-hydroxyphenyl)-1H-indazol-4-yl)oxy)pyrrolidin-1-yl)-3-((R)-1-methylpyrrolidin-2-yl)prop-2-en-1-one]", "values": [{"measurement": "Ki", "setting": "[1]; read-out: JAK 1 (pKi) (converted)", "value": "> 0.1", "unit": "µM"}, {"measurement": "IC50", "setting": "[2]; Homo sapiens, TALL-1, IL-2 stimulated pSTAT5 in Tall-1 T cells, read-out: Tall-1 (pIC50) (converted)", "value": "0.2 to 1", "unit": "µM"}, {"measurement": "Ki", "setting": "[3]; read-out: JAK 3 (pKi) (converted)", "value": "0.0001 to 0.001", "unit": "µM"}, {"measurement": "JAK3 (pKi)-JAK1 (pKi)", "setting": "[3]; selectivity: difference of pKi JAK3 and pKi JAK1", "value": "A (a value of 3 or above)"}]}
